{
  "source": "patent US20250177398A1",
  "about": "“CARBONIC ANHYDRASE ENZYMES FOR REGULATING MAST CELL HEMATOPOIESIS AND TYPE 2 INFLAMMATION” (RUTGERS, THE STATE UNIVERSITY OF NEW JERSEY, priority 2015, published 2025)",
  "key": {"[1]": {"tested_on": "IL-3C-induced intestinal mast cell responses and peripheral basophilia", "assay": "IL-3C treatment of Rag1-deficient mice", "assay_type": "in vivo, mouse", "conditions": "MZ 2 mg every day (FIG. 3G)", "experimental": "(§1) Methods for maintenance, recovery, infection and isolation of Trichinella larvae were performed as previously described (Urban, et al., 2000. J Immunol 164:2046-2052). Mice were infected with 500 Trichinella muscle larvae by oral gavage and were treated with vehicle (1:5 DMSO to PBS) or 2-3 mg of MZ i.p. daily; mice were sacrificed between 10-11 days post-infection. At necropsy, single cell suspensions of mLNs and spleens were prepared as previously described (Giacomin, et al., 2012. Journal of immunology (Baltimore, Md.: 1950) 189:4371-4378) for basophil and mast cell analysis. Blood was collected and serum was isolated for analysis of Mcpt1 and IgE. Sections (1 cm) of small intestine (jejunum) were collected for real-time PCR and histological analysis. Remaining sections of small intestine were slit lengthwise, rinsed in PBS, and placed in HBSS for 4 hours at 37° C. and adult worms were quantified by microscopic analysis as previously described (Urban, et al., 2000. J Immunol 164:2046-2052). Rag1^−/− mice were injected (i.p.) with a combination of recombinant IL-3 (1 μg) and α-IL-3 antibody (0.5 μg) (BioLegend: clone MP2-8F8) in 200 μl PBS every 3 days for 7-10 days. IL-3C-treated mice were treated with MZ (2 mg) or vehicle (DMSO) every day."}, "[2]": {"tested_on": "atopic dermatitis (AD)-like disease", "assay": "MC903-induced atopic dermatitis-like disease", "assay_type": "in vivo, mouse", "conditions": "MC903-treated mice, 2-3 mg MZ i.p. daily", "experimental": "(§2) Single cell suspensions were made from mesenteric, or skin draining lymph nodes. Lymph node cells were cultured in RPMI complete medium and treated with and without anti-CD3 (BD Pharmingen: clone 145-2C11) and anti-CD28 antibodies (BD Pharmingen: clone 37.51) for 72 hours. Standard sandwich ELISA (eBioscience) was performed to measure IL-4 (clones 11B11 and BVD6-24G2), IL-5 (clones TRFK5 and TRFK4) and IL-13 (clones eBio13A and eBio1316H) levels in the cell-free supernatants. Serum quantities of Mcpt1 and IgE were measured by commercial sandwich ELISA kits (BD Biosciences, eBioscience).\nMice were treated once a day topically with 2 nmol of MC903 (calcipotriol, Tocris Bioscience) in 20 μl of ethanol for 6 days as described previously (Kim, et al., 2013. Sci Transl Med 5: 170ra116). MC903-treated mice were treated with vehicle (1:5 DMSO to PBS) or 2-3 mg of MZ i.p. daily and sacrificed on day 7 post-treatment."}, "[3]": {"tested_on": "BM cells (macrophage development)", "assay": "Murine macrophage cultures: BM cells with L-cell supernatant", "assay_type": "cell-based, mouse", "conditions": "30% L-cell supernatant, 30 μg/mL MZ, day 5 (FIG. 1G)", "experimental": "BM cells were isolated from the femur of WT mice and cultured in the presence of 30% L-cell supernatant and vehicle (1:10 DMSO to RPMI complete media) or 30 μg/mL MZ. Fresh macrophage medium with either vehicle or MZ was added daily and macrophage cell populations were evaluated on day 5 post-culture"}, "[4]": {"tested_on": "Trichinella spiralis", "assay": "Trichinella spiralis infection of mice", "assay_type": "in vivo, mouse", "conditions": "T. spiralis-infected mice", "experimental": "as §1\nRNA from sections of small intestine was isolated by homogenization in TRIzol (Invitrogen) followed by phenol-chloroform extraction and isopropanol precipitation. cDNA was generated per standard protocol with Superscript reverse transcriptase (Invitrogen) and used as input for real-time PCR. Real-time data were analyzed using the ΔΔCT method using SYBR Green chemistry (Applied Biosystems) with β-actin serving as the endogenous housekeeping gene. All reactions were run on an ABI 7500 Fast Real-Time PCR System (Applied Biosystems). Samples were normalized to naïve controls. The following QuantiTech primer assays from Qiagen were used: Mcpt1 (QT00157864), IL-4 (QT00160678), IL-9 (QT00107555), Arg1 (QT00134288), Retnla (QT00254359), Car1 (QT01058113) and Car2 (QT00494592).\nas §2"}, "[5]": {"tested_on": "Aspergillus fumigatus", "assay": "Aspergillus fumigatus (FLARE conidia) lung infection", "assay_type": "in vivo, mouse", "conditions": "A. fumigatus-infected mice, 2-3 mg MZ i.p. daily, 72 hours post-infection (FIGS. 3H-3J)", "experimental": "A. fumigatus strain Af293 was grown on glucose minimal media (GMM) agar plates for 3 days or Sabouraud dextrose agar (SDA) for 7-10 days at 37° C., respectively. Conidia were harvested by adding 0.01% Tween 80 to plates and gently scraping conidia from the plates using a cell scraper. Conidia were then filtered through sterile Miracloth, were washed and resuspended in phosphate buffered saline (PBS), and counted on a hemocytometer. FLARE conidia were prepared as previously described (Espinosa, et al., 2014. PLOS Pathog 10:e1003940). Mice were challenged with 5×10^7 A. fumigatus conidia intratracheally (i.t.) as described previously (Espinosa, et al., 2014. PLOS Pathog 10:e1003940). Mice were treated with vehicle (1:5 DMSO to PBS) or 2-3 mg of MZ i.p. daily and sacrificed 72 hours post-infection. Bronchoalveolar lavage (BAL) fluid was collected by washing the lungs with 2 mL of PBS containing 0.05M EDTA. After collection of the BAL fluid, lung samples were minced in RPMI containing 100 units/mL of collagenase (Gibco) and incubated at 37° C. for 60 minutes, disrupted and filtered. Subsequently, red blood cells were lysed using a Tris ammonium chloride solution. Analysis of neutrophils was conducted using a panel of cell surface markers: CD45, CD11b, and Ly6G as previously described (Espinosa, et al., 2014. PLOS Pathog 10:e1003940). […]"}},
  "data": [
    {"smiles": "CC(=O)/N=c1/sc(S(N)(=O)=O)nn1C", "note": "[MZ, methazolamide]", "values": [
      {"measurement": "IL-3C-induced basophilia", "setting": "[1]", "result": "no effect"},
      {"measurement": "intestinal mast cell responses", "setting": "[1]", "result": "significantly reduced"},
      {"measurement": "type 2 cytokine production (skin-draining LN IL-4, IL-5, IL-13) vs controls", "setting": "[2]; day 7 (FIG. 3E)", "result": "equivalent or significantly increased"},
      {"measurement": "AD-like pathology vs controls", "setting": "[2]; day 7 (FIG. 3F)", "result": "similar"},
      {"measurement": "macrophage development", "setting": "[3]", "result": "no effect"},
      {"measurement": "type 2 responses (mLN cell IL-4, IL-5, IL-13; intestinal il4, il9, arg1, retnla; serum IgE)", "setting": "[4]; 2-3 mg MZ i.p. daily (FIG. 3A-C)", "result": "significantly reduced"},
      {"measurement": "worms recovered from the intestines (worm burden)", "setting": "[4]; 2-3 mg MZ i.p. daily (FIG. 3D)", "result": "significantly more"},
      {"measurement": "infection-induced basophilia (splenic basophils)", "setting": "[4]; 2-3 mg MZ i.p. daily (FIGS. 2F-2G)", "result": "no effect"},
      {"measurement": "mast cell responses (mLN mast cells, serum Mcpt1, intestinal mcpt1 expression, intestinal mast cells by histology)", "setting": "[4]; 2-3 mg MZ i.p. daily, day 10-11 (FIGS. 2A-2E)", "result": "significantly reduced"},
      {"measurement": "fungal clearance", "setting": "[5]", "result": "increased"},
      {"measurement": "neutrophil responses", "setting": "[5]", "result": "increased"}
    ]}
  ]
}
